Laboratory results reported in PubChem BioAssay AID2060493 (Molecular Pharmacology Branch, DTP, NCI, 2025).

Test system: 616215-338-R-J1-PDC tumor spheroids, viability
Test: Anticancer human tumor 616215-338-R-J1-PDC patient-derived colon adenocarcinoma cell line growth inhibition [GQUAD]
Conditions: spheroids with HUVEC and MSC; for viability, T/C: stronger effect = lower value
Text: DNA G-quadruplex Stabilizer Agents in Combinations in Complex Spheroids
A high-throughput screen of multi-cell type tumor spheroids was designed to identify active combinations of DNA G-quadruplex stabilizer agents and targeted small molecules. Complex spheroids include a stromal component modeled by human endothelial cells (HUVEC) and fibroblasts modeled by human mesenchymal stem cells (MSCs). The concentration ranges selected for each drug and investigational agent were based upon clinically achievable concentrations if the clinical Cmax of the agent was known.
Compounds. The drugs and investigational agents: pidnarulex (CX-5461; NSC782164), APTO-253 (NSC789042), BRACO-19 (NSC847499), peposertib (NSC802822), ceralasertib (NSC780249), elimusertib (NSC800525), camonsertib (NSC841442), AZD-1390 (NSC803789), olaparib (NSC753686), talazoparib (NSC767125), ART-558 (NSC835418), sotorasib (NSC818433), MRTX-1133 (NSC836407), SN-38 (NSC673596), topotecan (NSC609699), etoposide (NSC141540), doxorubicin (NSC123127), gemcitabine (NSC613327), 5-fluorouracil (NSC19893), paclitaxel (NSC125973), vemurafenib (NSC761431), panobinostat (NSC761190), R-306465 (JNJ-16241199; NSC773264), adavosertib (NSC754352), TP-3654 (NSC805149), carboplatin (NSC241240), KSQ-4279 (NSC840948), and staurosporine (NSC755774) were obtained from the National Cancer Institute (NCI) Developmental Therapeutics Program Chemical Repository (34). The FDA-approved anticancer drug set is available from the NCI Developmental Therapeutics Program. […] The stock solutions were prepared in dimethyl sulfoxide (DMSO, Sigma-Aldrich, St. Louis, MO, cat. D2650) at 800-fold the tested concentration and stored at -70 degrees C prior to their use. All drugs and investigational agents were tested over a range starting from a high concentration at or near the clinical Cmax and decreasing in half-log increments. If the clinical Cmax for an agent had not been determined, the highest concentration tested was 10 microM.
2.3 Cell Culture. All cells were maintained in an incubator at 37 degrees C and 5% CO2 with 95% humidity. The PDC lines were cultured according to standard operating procedures established by the NCI PDMR. All PDCs were thawed and cultured in Matrigel-coated flasks prepared with a working solution of 1X Ham's F-12 nutrient mix, without supplementation (Invitrogen, cat. 11765054), 100 U/mL penicillin-streptomycin (Invitrogen, cat. 15140122), and 2.5% Matrigel (Corning Inc., cat. 354248) for the first three passages. The 857933-349-R-J2-PDC line was cultured in 6C/Colon 1B media, which includes advanced DMEM/F-12 (Thermo Fisher Scientific, cat. 12634028), 10 mM HEPES (Thermo Fisher Scientific, cat. 15630080), 1X GlutaMAX supplement (Thermo Fisher Scientific, cat. 35050061), 0.1 mg/mL primocin (InvivoGen, cat. ant-pm-2), 10% defined fetal bovine serum, heat inactivated (HyClone Laboratories Inc., cat. SH30070.03HI), 50% L-WRN conditioned media (ATCC, cat. CRL-3276), 1.25 mM N-Acetyl-L-cysteine (Sigma-Aldrich, cat. A9165), 10 mM nicotinamide (Sigma-Aldrich, cat. N0636), 1X B-27 supplement (Thermo Fisher Scientific, cat. 17504044), 1X N-2 supplement (Thermo Fisher Scientific, cat. 17502048), 10 microM Y-27632 dihydrochloride (Tocris Bioscience, cat. 1254), and 50 ng/mL human EGF recombinant protein (Thermo Fisher Scientific, cat. PHG0311). The 485176-168-R4-J1-PDC line was cultured in Panc media, which includes all 6C/Colon 1B media components plus 100 ng/mL human FGF-10 (Thermo Fisher Scientific, cat. 100-26), 500 nM SB-431542 (Selleckchem, cat. S1067), and gastrin (Tocris, cat. 3006).
[…]

[1] = curve of first compound, second compound 0.0316 µM
[2] = curve of first compound, second compound 0.1 µM
[3] = curve of first compound, second compound 0.316 µM
[4] = curve of first compound, second compound 1 µM
[5] = curve of first compound, second compound 3.16 µM
[6] = curve of first compound, second compound 10 µM
[7] = second compound 0.0316 µM, first compound 0.0316 µM
[8] = second compound 0.0316 µM, first compound 0.1 µM
[9] = second compound 0.0316 µM, first compound 0.316 µM
[10] = second compound 0.0316 µM, first compound 1 µM
[11] = second compound 0.0316 µM, first compound 3.16 µM
[12] = second compound 0.0316 µM, first compound 10 µM
[13] = second compound 0.1 µM, first compound 0.0316 µM
[14] = second compound 0.1 µM, first compound 0.1 µM
[15] = second compound 0.1 µM, first compound 0.316 µM
[16] = second compound 0.1 µM, first compound 1 µM
[17] = second compound 0.1 µM, first compound 3.16 µM
[18] = second compound 0.1 µM, first compound 10 µM
[19] = second compound 0.316 µM, first compound 0.0316 µM
[20] = second compound 0.316 µM, first compound 0.1 µM
[21] = second compound 0.316 µM, first compound 0.316 µM
[22] = second compound 0.316 µM, first compound 1 µM
[23] = second compound 0.316 µM, first compound 3.16 µM
[24] = second compound 0.316 µM, first compound 10 µM
[25] = second compound 1 µM, first compound 0.0316 µM
[26] = second compound 1 µM, first compound 0.1 µM
[27] = second compound 1 µM, first compound 0.316 µM
[28] = second compound 1 µM, first compound 1 µM
[29] = second compound 1 µM, first compound 3.16 µM
[30] = second compound 1 µM, first compound 10 µM
[31] = second compound 3.16 µM, first compound 0.0316 µM
[32] = second compound 3.16 µM, first compound 0.1 µM
[33] = second compound 3.16 µM, first compound 0.316 µM
[34] = second compound 3.16 µM, first compound 1 µM
[35] = second compound 3.16 µM, first compound 3.16 µM
[36] = second compound 3.16 µM, first compound 10 µM
[37] = second compound 10 µM, first compound 0.0316 µM
[38] = second compound 10 µM, first compound 0.1 µM
[39] = second compound 10 µM, first compound 0.316 µM
[40] = second compound 10 µM, first compound 1 µM
[41] = second compound 10 µM, first compound 3.16 µM
[42] = second compound 10 µM, first compound 10 µM
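Also: spheroids exposed to agents for 7 days before readout.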
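For viability, T/C in this document: percent viability relative to DMSO vehicle control wells taken as 100%.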

Structure (SMILES): Nc1ccn(C2OC(CO)C(O)C2(F)F)c(=O)n1 (configuration not stated) + Cc1[nH]c2ccc(F)cc2c1-c1nc2c3cccnc3c3ncccc3c2[nH]1
- IC50 [1]: < 31.6 nM
- IC50 [2]: 33.6 nM
- IC50 [3]: < 31.6 nM
- IC50 [4]: < 31.6 nM
- IC50 [5]: < 31.6 nM
- IC50 [6]: < 31.6 nM
- viability, T/C [7]: 39%
- viability, T/C [8]: 26.1%
- viability, T/C [9]: 19.7%
- viability, T/C [10]: 13.7%
- viability, T/C [11]: 14%
- viability, T/C [12]: 16.1%
- viability, T/C [13]: 51.6%
- viability, T/C [14]: 20.2%
- viability, T/C [15]: 13.4%
- viability, T/C [16]: 12.9%
- viability, T/C [17]: 16.2%
- viability, T/C [18]: 17.1%
- viability, T/C [19]: 43.9%
- viability, T/C [20]: 23.8%
- viability, T/C [21]: 14.6%
- viability, T/C [22]: 13.9%
- viability, T/C [23]: 16%
- viability, T/C [24]: 13.6%
- viability, T/C [25]: 39.2%
- viability, T/C [26]: 31.1%
- viability, T/C [27]: 14.8%
- viability, T/C [28]: 11.8%
- viability, T/C [29]: 13.4%
- viability, T/C [30]: 13.8%
- viability, T/C [31]: 29.9%
- viability, T/C [32]: 22%
- viability, T/C [33]: 18.2%
- viability, T/C [34]: 13.8%
- viability, T/C [35]: 11%
- viability, T/C [36]: 14.6%
- viability, T/C [37]: 38.7%
- viability, T/C [38]: 17.2%
- viability, T/C [39]: 12.4%
- viability, T/C [40]: 14%
- viability, T/C [41]: 13.8%
- viability, T/C [42]: 13.8%

Structure (SMILES): Cc1[nH]c2ccc(F)cc2c1-c1nc2c3cccnc3c3ncccc3c2[nH]1
- viability, T/C (compound 0.0316 µM): 105% [middle of 12 runs]
- viability, T/C (compound 0.1 µM): 104% [middle of 12 runs]
- viability, T/C (compound 0.316 µM): 99.5% [middle of 12 runs]
- viability, T/C (compound 1 µM): 100% [middle of 12 runs]
- viability, T/C (compound 3.16 µM): 91.3% [middle of 12 runs]
- viability, T/C (compound 10 µM): 98% [middle of 12 runs]
- IC50 (compound alone, run of 04/16/2024): > 10000 nM
- IC50 (compound alone, run of 04/22/2024): > 10000 nM

Structure (SMILES): COc1ncnc(C2CC2)c1-c1ncc2cnn(Cc3ccc(-c4nc(C(F)(F)F)cn4C(C)C)cc3)c2n1 + Cc1cnc(CNC(=O)c2c(=O)c3ccc(N4CCCN(C)CC4)nc3n3c2sc2ccccc23)cn1
- IC50 [1]: > 10000 nM
- IC50 [2]: > 10000 nM
- IC50 [3]: < 31.6 nM
- IC50 [4]: < 31.6 nM
- IC50 [5]: < 31.6 nM
- IC50 [6]: < 31.6 nM
- viability, T/C [7]: 108%
- viability, T/C [8]: 98.7%
- viability, T/C [9]: 113%
- viability, T/C [10]: 97.2%
- viability, T/C [11]: 108%
- viability, T/C [12]: 100%
- viability, T/C [13]: 70.8%
- viability, T/C [14]: 72.2%
- viability, T/C [15]: 62.1%
- viability, T/C [16]: 57.5%
- viability, T/C [17]: 64.2%
- viability, T/C [18]: 58.3%
- viability, T/C [19]: 48.9%
- viability, T/C [20]: 46%
- viability, T/C [21]: 34.3%
- viability, T/C [22]: 34.8%
- viability, T/C [23]: 41.4%
- viability, T/C [24]: 66.7%
- viability, T/C [25]: 22.7%
- viability, T/C [26]: 35.4%
- viability, T/C [27]: 36.1%
- viability, T/C [28]: 32.6%
- viability, T/C [29]: 34.3%
- viability, T/C [30]: 31.3%
- viability, T/C [31]: 23%
- viability, T/C [32]: 28.7%
- viability, T/C [33]: 22.4%
- viability, T/C [34]: 26.7%
- viability, T/C [35]: 40.3%
- viability, T/C [36]: 27.1%
- viability, T/C [37]: 13.8%
- viability, T/C [38]: 28.4%
- viability, T/C [39]: 21.3%
- viability, T/C [40]: 25.5%
- viability, T/C [41]: 35.1%
- viability, T/C [42]: 22.1%
